{
  "source": "patent US20100204295A1",
  "about": "“TREATMENT OF ALLERGIC DISEASE WITH IMMUNOMODULATOR COMPOUNDS” (SCICLONE PHARMACEUTICALS, INC., priority 2007, published 2010)",
  "key": {"[1]": {"system": "infiltration of the lung tissue", "test": "Morphometric peribronchial and perivascular infiltration of lung tissue, ovalbumin asthma model", "type": "in vivo, mice of the Balb/C line", "details": "age group not given", "excerpt": "Female, non-pathogenic mice of the Balb/C line (“Pushchtino” laboratory animal breeders) were kept under conditions of an SPF-vivarium at a constant temperature, 12-hour day/night cycle, and received sterile feed and water ad libitum. In two series of experiments, mice from 6-8 weeks and 18-20 weeks of age were used at the beginning of the experiment, respectively. The animals were immunized twice at 5-day intervals with an ovalbumin solution (Sigma) in an adjuvant based on ammonium sulfate at a dosage of 8 μg per mouse. SCV-07 was administered intra-abdominally in a volume of 200 μL at a dosage of 0.1 or 1.0 μg/kg in PBS once a day from 6 through 11 days after the first immunization. The control group received physiological saline on the same days. Each group comprised 6 to 10 animals. On the 12th, 16th and 20th days after the first immunization, the animals were then placed in a hermetic box, in which an aerosol of 1% ovalbumin solution (OvA) in PBS was generated with an ultrasonic nebulizer LD-207U (Little Doctor) for 1 minute with continuous mixing of air. The duration of exposure of the animals to the aerosol was 15 minutes. Analysis of the severity of experimental allergic asthma was carried out 24 hours after the last aerosol exposure. […] Sections of […] were prepared. The sections were stained with hematoxylin-eosin to evaluate the intensity of cell infiltration and Schiff-iodic acid to count the number of goblet cells. Quantitative evaluation of the peribronchial and perivascular infiltration was accomplished morphometrically with the Scion Image program package. Three bronchi and three vessels were analyzed on sections of the lungs from each animal. The area of the infiltration was calculated as the difference between the area of the tissue containing bronchi or vessels and the infiltration surrounding it, and the area of the vessel or bronchus itself. The indices of infiltration were calculated as the ratio of the area of the infiltration to the area of the vessel or bronchus."}, "[2]": {"system": "goblet cells in the epithelium of the bronchi", "test": "Percentage of goblet cells in the epithelium of the bronchi, ovalbumin asthma model", "type": "in vivo, mice of the Balb/C line", "excerpt": "Female, non-pathogenic mice of the Balb/C line (“Pushchtino” laboratory animal breeders) were kept under conditions of an SPF-vivarium at a constant temperature, 12-hour day/night cycle, and received sterile feed and water ad libitum. In two series of experiments, mice from 6-8 weeks and 18-20 weeks of age were used at the beginning of the experiment, respectively. The animals were immunized twice at 5-day intervals with an ovalbumin solution (Sigma) in an adjuvant based on ammonium sulfate at a dosage of 8 μg per mouse. SCV-07 was administered intra-abdominally in a volume of 200 μL at a dosage of 0.1 or 1.0 μg/kg in PBS once a day from 6 through 11 days after the first immunization. The control group received physiological saline on the same days. Each group comprised 6 to 10 animals. On the 12th, 16th and 20th days after the first immunization, the animals were then placed in a hermetic box, in which an aerosol of 1% ovalbumin solution (OvA) in PBS was generated with an ultrasonic nebulizer LD-207U (Little Doctor) for 1 minute with continuous mixing of air. The duration of exposure of the animals to the aerosol was 15 minutes. […] The number of goblet and epithelial cells on the sections of the bronchi were calculated in no less than five visual fields on sections from the lungs from each animal and expressed as the percentage of the total number of cells."}, "spleen lymphocytes": {"system": "spleen lymphocytes", "details": "cited from earlier work"}, "bronchial asthma": {"system": "bronchial asthma", "type": "in vivo", "excerpt": "Patient B-skii, reported with complaints of dyspnea attacks 6-7 times a day, cough with phlegm that was difficult to discharge, shortness of breath, and nasal obstruction. It is known from the history that, since 1985, they have suffered bronchial asthma, has been hospitalized several times by emergency medical services in the Allergological Department in conjunction with exacerbation of the disease. Since 1997, they have been taking systemic glucocorticoids (Prednisolone 2 tablets/day—maintenance dose). They are also receiving Beklazom LD 250 (up to 1000 μg/day), Flixotide 250 (to 1000 μg/day), prolonged broncholytics (Serevent 25 μg/unit 50 μg/s), Teotard 200 (2 k/day, 400 mg/day). The attacks are treated with salbutamol (Ventolin).\nThe patient was prescribed the treatment: • 1. Ventolin through a nebulizer during dyspnea attacks—for 2 days, then Astalin (DAI) during dyspnea no more than 3-4 times a day; • 2. Intravenous drip: • 1. Prednisolone 90 nu-60 nu-30 nu in 200.0 mL physiological saline; • 2. Euphylline 2.4%-10.0-5.0 mL. • 3. Heparin 5000 units. • 4. Benacort 200 (800 μg/day). • 5. Prednisolone 4 t/day (8:00, 12:00) • 6. Lazolvan through a nebulizer, then Ambrohexyl 1 t/3 times a day.\nDuring attenuation of the acute condition (on the 8th day of hospitalization), SCV-07 was prescribed in an amount of 0.1 mg in 1.0 mL physiological saline once a day No. 5 daily [sic] intramuscular.\nThe patient took another examination under dynamic conditions (24 hours after the 5th intramuscular injection of SCV-07): Total blood analysis: erythrocytes—5.12·10^12/L, HB—159 g/L, leukocytes—9.7° 10^9/L, ESR—6 mm/h, b-, e—2%, rod nuclears—5%, segmented nuclears—67%, lymphocytes—20%, M—6%. Blood biochemistry: Sugar—5.7; Total bilirubin—8.9, ALT—0.12, AST—0.13, urea—5.12, creatinine—0.073 General sputum analysis—character—mucous, color gray, consistency viscous, flat epithelium 7-8, alveolar epithelium—none, leukocytes—1-2× in visual field. Hormonal status—cortisol—72.4 Evaluation of immune status"}, "[3]": {"system": "immunization with sheep red blood cells", "details": "in vivo; cited from earlier work"}, "[4]": {"details": "24 hours after the 5th injection"}, "[5]": {"details": "after 5 intramuscular injections of 0.1 mg"}},
  "data": [
    {"smiles": "N[C@H](CCC(=O)N[C@@H](Cc1c[nH]c2ccccc12)C(=O)O)C(=O)O", "note": "[SCV-07, γ-D-glutamyl-L-tryptophan]", "values": [
      {"measurement": "Index of peribronchial infiltration, conventional units", "setting": "[1]; 0.1 μg/kg", "result": "0.39 ± 0.19", "unit": "conventional units"},
      {"measurement": "Index of perivascular infiltration, conventional units", "setting": "[1]; 0.1 μg/kg", "result": "1.67 ± 1.08", "unit": "conventional units"},
      {"measurement": "Index of peribronchial infiltration, conventional units", "setting": "[1]; 1 μg/kg", "result": "0.35 ± 0.14", "unit": "conventional units"},
      {"measurement": "Index of perivascular infiltration, conventional units", "setting": "[1]; 1 μg/kg", "result": "1.48 ± 1.02", "unit": "conventional units"},
      {"measurement": "Reduction in the percentage of goblet cells in the epithelium of the bronchi vs control", "setting": "[2]; 0.1 μg/kg, significant vs control", "result": "more than two-fold reduction"},
      {"measurement": "% goblet cells of total number of cells (median, minimum-maximum)", "setting": "[2]; animals 6 to 8 weeks, 1 μg/kg", "result": "36.5 (3-92) %"},
      {"measurement": "Con-A-induced interleukin-2 (IL-2) production by spleen lymphocytes", "setting": "spleen lymphocytes", "result": "increases"},
      {"measurement": "IL-2 receptor expression by spleen lymphocytes", "setting": "spleen lymphocytes", "result": "increases"},
      {"measurement": "Immune status: CD3+", "setting": "bronchial asthma; [4]", "result": "CD3^+- 52"},
      {"measurement": "Immune status: CD4+", "setting": "bronchial asthma; [4]", "result": "CD4^+- 36"},
      {"measurement": "Immune status: CD8+", "setting": "bronchial asthma; [4]", "result": "CD8^+- 15"},
      {"measurement": "Immune status: CD16+", "setting": "bronchial asthma; [4]", "result": "CD16^+- 7"},
      {"measurement": "Immune status: CD20+", "setting": "bronchial asthma; [4]", "result": "CD20^+-11"},
      {"measurement": "Immune status: CD25+", "setting": "bronchial asthma; [4]", "result": "CD25^+-1.3"},
      {"measurement": "Immune status: Ig A", "setting": "bronchial asthma; [4]", "result": "Ig A - 1.11"},
      {"measurement": "Immune status: Ig G", "setting": "bronchial asthma; [4]", "result": "Ig G - 11.5"},
      {"measurement": "Immune status: Ig M", "setting": "bronchial asthma; [4]", "result": "Ig M - 0.9"},
      {"measurement": "Immune status: NST", "setting": "bronchial asthma; [4]", "result": "NST - 100/163"},
      {"measurement": "Immune status: TSIK", "setting": "bronchial asthma; [4]", "result": "TSIK - 77"},
      {"measurement": "Immune status: κ (NST ratio)", "setting": "bronchial asthma; [4]", "result": "κ - 1.6"},
      {"measurement": "Immune status: Ig E", "setting": "bronchial asthma; 24 hours after the 5th injection, 1130.6 on admission", "result": "Ig E - 672.1"},
      {"measurement": "Clinical dynamics of the disease", "setting": "bronchial asthma; [5]", "result": "elimination of dyspnea attacks, cough, rhinitis"},
      {"measurement": "Patient well-being after the course", "setting": "bronchial asthma; [5]", "result": "significant improvement of feeling well-being"},
      {"measurement": "Shortness of breath (respiratory rate)", "setting": "bronchial asthma; after course, 24 per minute on admission", "result": 16, "unit": "per minute"},
      {"measurement": "Effect in a model of immunization with sheep red blood cells", "setting": "[3]", "result": "strong immunostimulatory effect"}
    ]}
  ]
}
